From ChEMBL document CHEMBL4330100, “Selective estrogen receptor degraders with novel structural motifs induce regression in a tamoxifen-resistant breast cancer xenograft” (Bioorg Med Chem Lett, 2019)

Tests used:
Rattus norvegicus = test: In vivo antagonist activity at estrogen receptor in CD-IGS rat assessed as inhibition of estrogen-stimulated uterine growth at 1 mg/kg, po administered daily 15 mins before estrogen treatment for 3 days and measured 24 hrs post last dose relative to ARN-180; type: functional
MCF7 = test: Antiproliferative activity against human MCF7 cells assessed as reduction in cell proliferation measured after 5 days by Cell-titer-Glo assay; type: functional, cell-based; details: MCF7, 120 h
Estrogen receptor = target: T1, Estrogen receptor (Homo sapiens, UniProt P03372); test: Induction of ERalpha degradation in human MCF7 cells in phenol red free RPMI medium containing 5% charcoal-stripped FBS incubated for 4 hrs by IRDye 800CW/DRAQ5 dye based in-cell Western assay
T1 sequence (P03372 whole entry): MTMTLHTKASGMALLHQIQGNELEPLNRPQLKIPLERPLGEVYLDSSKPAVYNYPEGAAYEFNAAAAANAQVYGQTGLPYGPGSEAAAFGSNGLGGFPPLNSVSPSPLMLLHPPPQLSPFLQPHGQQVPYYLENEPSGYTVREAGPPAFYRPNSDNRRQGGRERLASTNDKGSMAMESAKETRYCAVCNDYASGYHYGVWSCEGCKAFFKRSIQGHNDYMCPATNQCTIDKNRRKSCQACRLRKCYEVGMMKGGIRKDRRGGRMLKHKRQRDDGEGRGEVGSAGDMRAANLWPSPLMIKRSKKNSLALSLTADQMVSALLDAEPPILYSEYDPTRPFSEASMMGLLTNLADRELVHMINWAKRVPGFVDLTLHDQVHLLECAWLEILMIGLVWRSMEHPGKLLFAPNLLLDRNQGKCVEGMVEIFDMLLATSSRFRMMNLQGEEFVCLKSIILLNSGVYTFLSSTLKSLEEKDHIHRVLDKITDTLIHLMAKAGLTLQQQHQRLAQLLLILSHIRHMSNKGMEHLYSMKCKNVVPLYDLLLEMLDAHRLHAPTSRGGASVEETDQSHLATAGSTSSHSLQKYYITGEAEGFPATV

[1] = target: T2, Estrogen receptor (Homo sapiens) (UniProt P03372); test: Induction of ERalpha degradation in human MCF7 cells in phenol red free RPMI medium containing 5% charcoal-stripped FBS incubated for 4 hrs by IRDye 800CW/DRAQ5 dye based in-cell Western assay relative to fulvestrant
T2 sequence (whole entry): T1 sequence (P03372 whole entry)

[2] = target: T2, Estrogen receptor (Homo sapiens); test: Induction of ERalpha degradation in human MCF7 cells in phenol red free RPMI medium containing 5% charcoal-stripped FBS at 2 to 10 uM incubated for 4 hrs by IRDye 800CW/DRAQ5 dye based in-cell Western assay relative to fulvestrant

Structure (SMILES) | Efficacy (Rattus norvegicus) [%] | IC50 (MCF7) [nM] | EC50 (Estrogen receptor) [nM] | Efficacy [1] [%] | Efficacy [2] [%]
O=C(O)/C=C/c1ccc(/C(=C(\c2ccc(F)cc2Cl)C2CCC2)c2ccc(-c3cncs3)cc2)cc1 | 91 | 4.2 | 0.8 |  | 
O=C(O)/C=C/c1ccc(/C(=C(\c2ncc(C(F)(F)F)cc2Cl)C2CCC2)c2ccc(-c3cncs3)cc2)cc1 |  | 7.3 | 1.4 | 93 | 
CC/C(=C(/c1ccc(/C=C/C(=O)O)cc1)c1ccn2nncc2c1)c1ccccc1 |  | > 500 | 340 |  | 86
O=C(O)/C=C/c1ccc(/C(=C(\c2ccccc2)C2CCC2)c2ccc3scnc3c2)cc1 |  | 16 | 5.9 | 88 | 
N#Cc1cc(Cl)ccc1/C(=C(\c1ccc(/C=C/C(=O)O)cc1)c1ccc(N2CCOCC2)cc1)C1CCC1 |  | 12 | 5 | 92 | 
CC/C(=C(\c1ccccc1)c1ccc(/C=C/C(=O)O)cc1)c1ccccc1 |  |  |  |  | 85
N#Cc1ccc(/C(=C(\c2ccc(/C=C/C(=O)O)cc2)c2ccc3scnc3c2)C2CCC2)c(Cl)c1 | 92 | 1.4 | 0.8 |  | 
CC/C(=C(/c1ccc(/C=C/C(=O)O)cc1)c1ccc2ncsc2c1)c1ccccc1 |  | > 500 | 240 |  | 86
O=C(O)/C=C/c1ccc(/C(=C(\c2ccc(C(F)(F)F)cc2Cl)C2CCC2)c2ccc3nccn3c2)cc1 |  | 5.1 | 1.5 | 94 | 
CC/C(=C(/c1ccc(/C=C/C(=O)O)cc1)c1ccc(N2CCOCC2)cc1)c1ccccc1 |  | 94 | 50 | 91 | 
O=C(O)/C=C/c1ccc(/C(=C(\c2ccccc2)C2CCC2)c2ccc(-c3cn[nH]c3)cc2)cc1 |  | 11 | 2.1 | 90 | 
CC/C(=C(/c1ccc(/C=C/C(=O)O)cc1)c1ccc2ocnc2c1)c1ccccc1 |  | > 500 | 460 |  | 86
CC/C(=C(/c1ccc(/C=C/C(=O)O)cc1)c1ccn2nccc2c1)c1ccccc1 |  | > 500 | 350 |  | 90
CC/C(=C(/c1ccc(/C=C/C(=O)O)cc1)c1ccc2scnc2c1)c1ccccc1 |  | 90 | 22 | 89 | 
CC/C(=C(/c1ccc(/C=C/C(=O)O)cc1)c1ccc2ccccc2c1)c1ccccc1 |  | 180 | 57 |  | 91
CC/C(=C(/c1ccc(/C=C/C(=O)O)cc1)c1ccc(-n2ccnc2)cc1)c1ccccc1 |  | 380 | 300 |  | 89
N#Cc1ccc(/C(=C(\c2ccc(/C=C/C(=O)O)cc2)c2ccc3nccn3c2)C2CCC2)c(Cl)c1 |  | 15 | 19 | 93 | 
CC/C(=C(/c1ccc(/C=C/C(=O)O)cc1)c1ccc(-c2cn[nH]c2)cc1)c1ccccc1 |  | 40 | 12 | 91 | 
CC/C(=C(/c1ccc(/C=C/C(=O)O)cc1)c1ccc(-c2nccs2)cc1)c1ccccc1 |  | 290 | 83 |  | 91
CC/C(=C(/c1ccc(/C=C/C(=O)O)cc1)c1ccc(-c2cnn(C)c2)cc1)c1ccccc1 |  | 80 | 15 | 92 | 
CC/C(=C(/c1ccc(/C=C/C(=O)O)cc1)c1ccc2nnnn2c1)c1ccccc1 |  | > 500 | > 500 |  | 
CC/C(=C(/c1ccc(/C=C/C(=O)O)cc1)c1ccc(N2CCCCC2)cc1)c1ccccc1 |  | 450 | 190 |  | 90

Structure (SMILES) | Efficacy (Rattus norvegicus) [%] | IC50 (MCF7) [nM] | EC50 (Estrogen receptor) [nM] | Efficacy [1] [%] | Efficacy [2] [%]
CC/C(=C(/c1ccc(/C=C/C(=O)O)cc1)c1ccc2c(cnn2C)c1)c1ccc(F)cc1Cl |  | 81 | 27 | 86 | 
CC/C(=C(/c1ccc(/C=C/C(=O)O)cc1)c1ccc(N2CCN(C)CC2)cc1)c1ccccc1 |  | 220 | 90 |  | 85
CC/C(=C(/c1ccc(/C=C/C(=O)O)cc1)c1ccc2c(cnn2C)c1)c1ccccc1 |  | 300 | 140 |  | 84
N#Cc1ccc(/C(=C(\c2ccc(/C=C/C(=O)O)cc2)c2ccc(-c3cncs3)cc2)C2CCC2)c(Cl)c1 |  | 2.9 | 1.8 | 94 | 
CC/C(=C(/c1ccc(/C=C/C(=O)O)cc1)c1ccn2ccnc2c1)c1ccccc1 |  | > 500 | > 500 |  | 
CC/C(=C(/c1ccc(/C=C/C(=O)O)cc1)c1ccc2nncn2c1)c1ccccc1 |  | > 500 | > 500 |  | 
N#Cc1ccc(/C(=C(\c2ccc(/C=C/C(=O)O)cc2)c2ccc(N3CCOCC3)cc2)C2CCC2)c(Cl)c1 |  | 7.5 | 4.2 | 92 | 
CC/C(=C(/c1ccc(/C=C/C(=O)O)cc1)c1ccc(-c2cc[nH]n2)cc1)c1ccccc1 |  | 440 | 99 |  | 86
CC/C(=C(/c1ccc(/C=C/C(=O)O)cc1)c1ccc(-c2cncs2)cc1)c1ccccc1 |  | 31 | 7.4 | 90 | 
CC/C(=C(/c1ccc(/C=C/C(=O)O)cc1)c1ccc2sc(C)nc2c1)c1ccccc1 |  | > 500 | 150 |  | 88
CC/C(=C(/c1ccc(/C=C/C(=O)O)cc1)c1ccc(-c2cscn2)cc1)c1ccccc1 |  | 120 | 37 | 90 | 
O=C(O)/C=C/c1ccc(/C(=C(\c2ccc(C(F)(F)F)cc2Cl)C2CCC2)c2ccc(-c3cn[nH]c3)cc2)cc1 |  | 16 | 4.8 | 93 | 
O=C(O)/C=C/c1ccc(/C(=C(\c2ncc(C(F)(F)F)cc2Cl)C2CCC2)c2ccc(-c3cn[nH]c3)cc2)cc1 |  | 16 | 2.8 | 93 | 
CC/C(=C(/c1ccc(/C=C/C(=O)O)cc1)c1ccc2cncn2c1)c1ccccc1 |  | > 500 | 260 |  | 86
O=C(O)/C=C/c1ccc(/C(=C(\c2ncc(C(F)(F)F)cc2Cl)C2CCC2)c2ccc(N3CCOCC3)cc2)cc1 |  | 20 | 4.1 | 92 | 
CC/C(=C(/c1ccc(/C=C/C(=O)O)cc1)c1ccc2sncc2c1)c1ccccc1 |  | > 500 | 200 |  | 90
CC/C(=C(/c1ccc(/C=C/C(=O)O)cc1)c1ccc2nccn2c1)c1ccccc1 |  | 170 | 75 |  | 86
CC/C(=C(\c1ccc(O)cc1)c1ccc(/C=C/C(=O)O)cc1)c1ccccc1 |  | 4.6 |  |  | 
CC/C(=C(/c1ccc(/C=C/C(=O)O)cc1)c1ccc(-c2cnsc2)cc1)c1ccccc1 |  | 120 | 28 | 89 | 
N#Cc1cc(Cl)ccc1/C(=C(\c1ccc(/C=C/C(=O)O)cc1)c1ccc2nccn2c1)C1CCC1 |  | 5.9 | 4.3 | 93 | 
CC/C(=C(/c1ccc(/C=C/C(=O)O)cc1)c1ccc(-c2cnco2)cc1)c1ccccc1 |  | 51 | 17 | 92 | 
